Results published in patent US8883821B2, “Substituted pyrazolo[3,4-b]pyridines as medicaments” (Pierre Fabre Medicament, priority 2011, dated 2014).

Tested on: human anaplastic large-cell lymphoma (ALCL) tumor model
Test: Antitumor activity in vivo, ALCL tumors grafted subcutaneously in mice, oral daily dosing
Conditions: mice with subcutaneous ALCL tumors, daily schedule, animals weighed
Method: Pharmacological Activity In Vivo
The compounds were administered orally at various doses on a daily schedule to mice with ALCL tumors grafted subcutaneously. Tumor size was measured regularly during the study and the animals were weighed several times per week in order to identify any adverse effects. A compound is declared active if it induces inhibition of ALCL tumor growth by at least 58%.

Row | SMILES | adverse effects / tolerance in vivo
1 | CN1CCN(c2ccc(C(=O)Nc3n[nH]c4ncc(Sc5cc(F)cc(F)c5)cc34)c(NC3CCOCC3)c2)CC1 [Example 30, N-(5-(3,5-difluorophenylthio)-1-H-pyrazolo[3,4-b]pyridine-3-yl)-4-(4-methylpiperazine-1-yl)-2-(tetrahydro-2H-pyran-4-ylamino)benzamide] | no adverse effects
2 | CN1CCN(c2ccc(C(=O)Nc3n[nH]c4ncc(Cc5cc(F)cc(F)c5)cc34)c(NC3CCOCC3)c2)CC1 [Example 30-9, N-(5-(3,5-difluorobenzyl)-1H-pyrazolo[3,4-b]pyridin-3-yl)-4-(4-methylpiperazin-1-yl)-2-(tetrahydro-2H-pyran-4-ylamino)benzamide] | no adverse effects
